# Literature values as cited in US20260001860A1, “METHODS AND COMPOSITIONS OF INHIBITING DCN1-UBC12 INTERACTION” (University of Kentucky Research Foundation, priority 2022, published 2026).
# Details: patient population taking either proteasome inhibitor
Structure (SMILES),patient population exhibiting grade 3 hematologic adverse events (thrombocytopenia and neutropenia) [%],patients suffering grade 4 adverse events (potentially life-threatening) [%]
CC(C)C[C@H](NC(=O)[C@H](Cc1ccccc1)NC(=O)c1cnccn1)B(O)O [bortezomib],50,~15
CC(C)C[C@H](NC(=O)[C@H](CCc1ccccc1)NC(=O)CN1CCOCC1)C(=O)N[C@@H](Cc1ccccc1)C(=O)N[C@@H](CC(C)C)C(=O)[C@@]1(C)CO1 [carfilzomib],50,~15
